Laboratory results taken from US20260315567A1, “POLYMERIC LEUPROLIDE ACETATE FORMULATIONS” (Tolmar International Limited, priority 2023, published 2026).

What was measured:
[1] = Solubility of LA in organic solvent; format: physicochemical; settings: in NMP or DMSO
Source text: To produce the drug/solvent bulk solution comprising the API (LA), the desired amount of the LA was combined with the solvent NMP or DMSO or combination of solvents with or without a co-solvent or other additives, in the indicated amounts (see individual experiments below). The API and solvent were combined in a glass vial or jar. Jars were mixed using the jar mill, Turbula, or shaker at room temperature until homogeneous. LA is soluble in NMP or DMSO and can load higher concentrations (at least 40% w/w). After dissolving the API in the organic solvent, the bulk solution was manually filled into syringes and capped with a tip cap. The syringes used for filling were either 1.2 mL male polypropylene syringes, 1.2 mL male cyclic olefin copolymer syringes or 1 mL male cyclic olefin copolymer syringes. Filled syringes were then packaged in labeled foil pouches with a Syringe A (polymer-solvent solution) and a desiccant pack and the pouches were sealed. After filling the syringes with the formulations, they were terminally sterilized with an external radiation dose of 30 kGy from e-beam processing. After terminal sterilization, the syringes were stored under refrigerated conditions (e.g., 2-8° C.) or accelerated conditions (>25° C. see individual experiments).

[2] = LA gelation studies of drug solutions (e-beam irradiated, 60 °C with agitation, inversion test); format: physicochemical; settings: 150 rpm, up to 16 days, leuprolide acetate content
Description: Drug solutions were prepared as described above and filled into syringes or glass vials. Syringes were untreated, contained various amounts of silicone, or were plasma coated for lubrication. Samples were irradiated by e-beam irradiation at not less than 25 kGy and stored at accelerated conditions of 60° C. with agitation at 150 rpm for up to 16 days. Samples were inspected periodically to determine if the drug solution remained a solution or had formed a solid/gel by an inversion test. Samples that had “gelled” were transferred to 5° C. for subsequent testing.
The gelation rate for each sample was calculated as Rate=1/(simulated 5° C. age at time of gelation in days). The Arrhenius equation was used to determine the simulated age, assuming standard reaction rate doubling for every 10° C. increase in temperature. […] Data was analyzed using JMP. […] Container type and lubrication were not significant.
Samples were tested for leuprolide content by HPLC. Leuprolide content was then converted to leuprolide acetate by multiplying by 1.078 (based on molecular mass ratios). A marked difference in leuprolide acetate content between the gelled and non-gelled samples was seen, with the tipping point between solution and solid/gelled samples occurring at about 45% LA.

With CCNC(=O)[C@@H]1CCCN1C(=O)[C@H](CCCNC(=N)N)NC(=O)[C@H](CC(C)C)NC(=O)[C@@H](CC(C)C)NC(=O)[C@H](Cc1ccc(O)cc1)NC(=O)[C@H](CO)NC(=O)[C@H](Cc1c[nH]c2ccccc12)NC(=O)[C@H](Cc1c[nH]cn1)NC(=O)[C@@H]1CCC(=O)N1 [LA, leuprolide acetate] the “solubility (loading)” value [1] was “at least 40 % w/w” and the “tipping point between solution and solid/gelled samples” value [2] was “about 45 % LA”.
